Assay results taken from PubChem BioAssay (NCI).
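Interpolation was linear, between the two tested concentrations surrounding the appropriate level; five concentrations were tested over 48 hours in 96-well plates. TGI is the concentration that stops growth completely.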

What was measured:
Test in all cases: inhibition of tumour cell growth, NCI panel, 48 h
[1] = tested on: SW-620 colon
[2] = tested on: HOP-62 NSCLC
[3] = tested on: SN12C renal
[4] = tested on: UACC-257 melanoma
[5] = tested on: PC-3 prostate
[6] = tested on: TK-10 renal
[7] = tested on: NCI-H460 lung
[8] = tested on: SK-OV-3 ovarian
[9] = tested on: CCRF-CEM leukemia
[10] = tested on: ACHN renal

| Structure (SMILES) | TGI [1] [µM] | TGI [2] [µM] | TGI [3] [µM] | TGI [4] [µM] | TGI [5] [µM] | TGI [6] [µM] | TGI [7] [µM] | TGI [8] [µM] | TGI [9] [µM] | TGI [10] [µM] |
| --- | --- | --- | --- | --- | --- | --- | --- | --- | --- | --- |
| COC(=O)Cc1cccc2c(=O)c(S(=O)(=O)NC(=O)Nc3ccc(Cl)cc3)c(-c3ccccc3)oc12 | > 100 | > 100 | > 100 | > 100 | > 100 | > 100 | > 100 | > 100 | > 100 | 63.5 |
| Cc1cn(CCCCOC(=O)NC(CCCN=C(N)N)C(=O)O)c(=O)[nH]c1=O (stereo not given) | > 100 | > 100 | > 100 | > 100 | > 100 | > 100 | > 100 | > 100 | > 100 | > 100 |
| Cc1cc(-c2nc3ccc(F)cc3s2)ccc1NC(=O)C(N)CCCCN (stereo not given) | 7.93 | 12.7 | 21.3 | 28.1 | 22.7 | 14.5 | 5.64 | 27.1 | 7.68 | 25.6 |
| CC1(C)C(CBr)=[N+]([O-])C(C)(C)N1O | 4.86 | > 10 | 9.93 | > 10 | > 10 | > 10 | > 10 | > 10 | 4.49 | > 8.86 |
| CCOC(=O)c1ccc(Nc2nc3ccccc3n3cccc23)cc1 | > 100 | 75.7 | 39.4 | > 100 | > 100 | > 100 | > 100 | 92.4 | 0.108 | > 100 |
| Cc1ccc(N2C=Nn3c(nc4sc5c(c4c3=O)CCCC5)C2)cc1 | > 100 | 69.2 | > 100 | > 100 | > 100 | > 100 | > 100 | > 100 | > 100 | > 100 |
| O=C1/C(=C/c2ccc([N+](=O)[O-])cc2)CCCc2ccccc21 | > 100 | > 100 | > 100 | > 100 | > 100 | > 100 | > 100 | > 100 | > 100 | > 100 |
| Nc1ccc2nc3n(c2c1)C(c1c(F)cccc1F)SC3 (stereo not given) | > 100 | > 100 | > 100 | > 100 | > 100 | > 100 | > 100 | > 100 | > 100 | > 100 |
| CCOC(=O)C(=CNc1ccc(S(N)(=O)=O)cc1)C(=O)OCC | > 100 | > 100 | > 100 | > 100 | > 100 | > 100 | > 100 | > 100 | > 100 | > 100 |
| Cc1c(C)c(S(=O)(=O)N(CCCN)OCCCN)c(C)c2c1OC(C)(C)CC2 | 29 | 27.2 | 28.4 | 27.3 | 24.5 | 28 | 30.3 | 29.8 | 27.6 | 29.6 |
| COC(=O)[C@H](Cc1ccccc1)NC(=O)OCC1OC(n2cc(C)c(=O)[nH]c2=O)CC1N=[N+]=[N-] (stereo not given in full) | > 100 | > 100 | > 100 | > 100 | > 100 | > 100 | > 100 | > 100 | > 100 | > 100 |
| COc1ccc(C/C=C(\C)CCO)cc1 | > 100 | > 100 | > 100 | > 100 | > 100 | > 100 | > 100 | > 100 | > 100 | > 100 |
| CCCCC1Nc2ccccc2-c2ccnc(Cl)c21 (stereo not given) | > 100 | 53.3 | 51 | 42.3 | > 100 | > 100 | > 100 | 55.7 | 52.6 | 68.4 |
| CC(C)CC(C#CCCOC(=O)c1ccccc1)OC(=O)c1ccccc1 (stereo not given) | > 10 | > 10 | > 10 | > 10 | > 10 | > 10 | > 10 | > 10 | > 10 | > 10 |
| CC12CP(=O)(O)CC1C2(Cl)Cl (stereo not given) | > 100 | > 100 | > 100 | > 100 | > 100 | > 100 | > 100 | > 100 | > 100 | > 100 |
| CC(C)(C)c1ccc(NS(=O)(=O)c2ccc(N)cc2)cc1 | 69 | 13.7 | 48.6 | > 100 | 85.7 | > 100 | > 100 | 12.5 | 40.2 | 83.6 |
| C=C(C)[C@@]12C[C@H](OC(=O)[C@H](O)[C@@H](NC(=O)c3ccccc3)c3ccccc3)C(C)=C1[C@@H](OC(C)=O)C(=O)[C@@]1(C)C([C@@H]2OC(=O)c2cc(F)cc(F)c2)C2(OC(C)=O)CO[C@@H]2C[C@@H]1O (stereo not given in full) | > 10 | > 5.79 | > 4.51 | 2.79 | > 10 | 9.66 | 9.22 | > 10 | 0.355 | > 9.36 |
| O=C1C=CC(=O)c2c(O)c(NCCN3CCOCC3)c(Cl)c(O)c21 | 2.91 | 3.72 | 3.23 | 4.56 | 7.15 | > 10 | 3.3 | > 10 | 4.46 | 7.51 |
